# What was measured:
# [1] = test system: patients with mCRPC with HRR gene alterations; assay: TALAPRO-2 (NCT03395197) Phase 3, Part 2, DDR/HRR-deficient cohort (Cohort 2): efficacy; type: in vivo, human
# Protocol: In one embodiment, the increase in survival is measured by any of the following: progression free survival (PFS), radiographic PFS (rPFS), and overall survival (OS). PFS, rPFS and OS are clinically meaningful endpoints for measuring an increase in survival for patients treated with the combination of the present invention. […] OS is the length of time from either the date of diagnosis or the start of treatment for a disease, such as cancer, that patients diagnosed with the disease are still alive. In a clinical trial, measuring the PFS and OS are ways to see how well a new treatment works. For purposes of the clinical trial described here, rPFS refers to the time from the date of randomization to first objective evidence of radiographic progression assessed in soft tissue per Response Evaluation Criteria in Solid Tumors version 1.1 (RECIST 1.1) or in bone (upon subsequent confirmation) per Prostate Cancer Working Group (PCWG3) guidelines by Blinded Independent Central Review (BICR), or death, whichever occurs first. For purposes of the clinical trial described here, OS refers to the time from the date of randomization to death due to any cause.
# This was an international, Phase 3, randomized, double-blind, two-part study for mCRPC patients, TALAPRO-2 (NCT03395197).
# Part 2 was randomized, double-blind, and placebo-controlled and evaluated the efficacy and safety of talazoparib in combination with enzalutamide compared with placebo in combination with enzalutamide. From February 2019 to January 2022, 399 patients (169 from Cohort 1) were randomized 1:1 to receive either talazoparib or matching placebo in combination with open-label enzalutamide once daily. Randomization was stratified by prior novel hormonal therapy or taxane-based chemotherapy, e.g., abiraterone, orteronel, or docetaxel for castration-sensitive prostate cancer (yes/no) and DDR mutational status, also referred to as, homologous recombination repair gene alteration status (deficient vs. non deficient/unknown). Stratification factors were specified by the investigator, and recorded in the interactive web response system (IWRS) before randomization and used for the stratified analysis of the primary efficacy endpoint. However, as the IWRS grouped non-deficient and unknown status, a secondary stratified analysis based on homologous recombination repair gene alteration status derived from the clinical database was also performed and used to identify the non-deficient subpopulation.
# Genomic screening to identify alterations in DDR genes was optional for patients in Part 1, but it was required for randomization in Part 2. Mutational status was determined by testing for the presence of mutations in defined DDR genes likely to sensitize to PARP inhibition using next generation sequencing (NGS) based gene panel test. Prior to randomization, patients consented to provide solid tumor tissue (de novo or archival) and/or blood-based samples, which were prospectively assessed for homologous recombination repair (HRR) gene alterations (BRCA1, BRCA2, PALB2, ATM, ATR, CHEK2, FANCA, RAD51C, NBN, MLH1, MRE11A, CDK12) using FoundationOne® CDx and/or FoundationOneLiquid® CDx. […] One patient was enrolled based on ctDNA results only. For exploratory analysis, available blood-based samples (not collected in China) were retrospectively tested using FoundationOneLiquid® CDx to determine the status of patients with a prospectively-assessed status of unknown.
# [2] = test system: patients with mCRPC with HRR gene alterations; conditions: male, human, in vivo
# [3] = BICR, measurable soft tissue disease
# [4] = DDR-deficient population, overall
# [5] = Non-BRCAm HRRm incl. 4 patients without HRR gene mutations (N = 129 vs 115)
smiles,measurement,setting,value
CNC(=O)c1ccc(N2C(=S)N(c3ccc(C#N)c(C(F)(F)F)c3)C(=O)C2(C)C)cc1F [Placebo + Enzalutamide],CR rate,[1]; [3],18.5%
same,PD rate,[1]; [3],20.0%
same,PR rate,[1]; [3],21.5%
same,rPFS events by BICR,[1]; BRCA1/2 mutations subgroup,54 events
same,"rPFS, Number of events",[1]; BRCAm (N = 71 vs 84),54 (64) n (%)
same,Median PFS2,[1]; DDR-deficient population,28.1 months
same,Median investigator-assessed rPFS,[1]; DDR-deficient population,16.9 months
same,Median time to use of cytotoxic chemotherapy,[1]; DDR-deficient population,NE/NR
same,PFS2 events,[1]; DDR-deficient population,61 events
same,"PSA response rate (decline from baseline PSA by at least 50%, confirmed)",[1]; DDR-deficient population,63.1%
same,"Time to cytotoxic chemotherapy, events",[1]; DDR-deficient population,65 events
same,Median rPFS by BICR,[1]; [4],13.8 months
same,rPFS events by BICR,[1]; [4],104 events
same,Median OS,"[1]; DDR-deficient population, interim",33.7 months
same,"rPFS, Median months (95% CI)",[1]; [5],"16.7 (13.8, 27.7) months"
same,"rPFS, Number of events",[1]; [5],50 (43) n (%)
same,"rPFS by BICR, Median",[1]; gene subgroup: ATM Cluster,27.7 mo
same,"rPFS by BICR, Median",[1]; gene subgroup: All HRR-deficient,13.8 mo
same,"rPFS by BICR, Median",[1]; gene subgroup: BRCA Cluster,11.0 mo
same,"rPFS by BICR, Median",[1]; gene subgroup: CDK12 Cluster,13.8 mo
same,"rPFS by BICR, Median",[1]; gene subgroup: Only ATM,27.7 mo
same,"rPFS by BICR, Median",[1]; gene subgroup: Only BRCA1,11.7 mo
same,"rPFS by BICR, Median",[1]; gene subgroup: Only BRCA2,11.0 mo
same,"rPFS by BICR, Median",[1]; gene subgroup: Only CDK12,13.8 mo
same,"rPFS by BICR, Median",[1]; gene subgroup: Only PALB2,8.6 mo
same,"rPFS by BICR, Median",[1]; gene subgroup: PALB2 Cluster,8.3 mo
same,patients who had died,"[1]; interim OS analysis, 24% maturity overall",26.6%
same,OS events (deaths),"[1]; interim OS analysis, 96 deaths",53 events
same,Median OS (printed: Median rPFS),[1]; non-BRCA1/2 mutations subgroup,33.7 months
same,rPFS events by BICR,[1]; non-BRCA1/2 mutations subgroup,50 events
same,Median rPFS by BICR,"[1]; non-BRCA1/2 mutations subgroup, N=240",16.7 months
same,Objective response rate by BICR (RECIST 1.1),[1]; patients with measurable soft tissue disease at baseline,40.0%
same,Patients with Grade 3 or higher TRAEs,[2],28 (14) n (%)
same,Patients with any TRAEs,[2],144 (72.4) n (%)

# From patent US20260207589A1, “Combination of Talazoparib and Enzalutamide in the Treatment of Metastatic Castration-Resistant Prostate Cancer” (Pfizer Inc., priority 2022, published 2026)
